# Test results reported in patent publication US8883763B2 (Universite Joseph Fourier, priority 2010, dated 2014).
# Columns and labels:
# [1] = system: bovine brain tubulin; experiment: In vitro tubulin polymerization test (turbidimetry at 350 nm); type: biochemical; conditions: molecules at 50 μM, calculated at t=3000 s, DMSO control = 100%
# Protocol: Tubulin was purified from bovine brain using the polymerization-depolymerization process described by (Castoldi M and Popov A V. Protein Expr Purif. 2003, 32(1): pp 83-8).
# The in vitro tubulin polymerization tests (at 50 μM) were carried out in the presence of GTP 1 mM in BRB80 buffer (80 mM K-PIPES pH 6.8, 1 mM MgCl2, 1 mM EGTA) at 37° C. The tests were carried out in 96-microwell plates (half-wells) (Costar plates, Corning #3695), in triplicate with a final volume of 70 μl. Tubulin assembly was carried out in the presence of compound 6 or its analogues (all used at a concentration of 50 μM) and was monitored by turbidimetry measurement at 350 nm using a spectrophotometer (Spectramax More, Molecular Devices).
# Measurement of the effect of a molecule on polymerization was calculated at t=3000 s taking the value of the control at the same time as being equal to 100%.
# [2] = system: HeLa cells; experiment: Indirect immunofluorescence: effect on HeLa cells (mitotic arrest, microtubule depolymerization); type: cell-based, human; design: key to Effect on Hela at 25 μM / Effect on Hela at 100 μM / Effect on Hela at 50 and 100 μM / Effect on Hela at 50 μM: —: −: no activity on the cells at 25 μM (if there is an effect at high concentrations, this is specified in the table).; *: weak activity (MA and/or slight depolymerization of the MTs and/or slight inhibition of proliferation),; **: average activity (MA and/or moderate depolymerization of the MTs and/or moderate inhibition of proliferation),; ***: strong activity (MA and/or pronounced depolymerization of the MTs and/or pronounced inhibition of proliferation),; ****: very strong activity (MA and/or very pronounced depolymerization of the MTs and/or strong inhibition of proliferation); conditions: 24 hours; for Effect on Hela at 25 μM: mitotic index and/or depolymerization of the MTs
# Protocol: The cells were cultured on slides in 24-well plates and incubated for 24 hours with molecule 6 at different concentrations from 1 to 10 μM.
# Corresponding quantities of DMSO were added to the culture medium in the control wells.
# The cells were fixed in a solution of PBS with 4% paraformaldehyde (PFA) and 0.1% glutaraldehyde (GA), for 15 minutes and centrifuged at 300 g for the last 10 minutes of the fixing. The slides were rinsed in PBS and the free aldehyde groups were reduced by two successive 5-minute incubations in PBS containing 1 mg/ml of NaBH4.
# After one washing with PBS then another with PBST (PBS with 0.5% triton-X-100), the cells are incubated for 30 minutes at ambient temperature with anti α-tubulin monoclonal antibody solution (DM1A clone, Sigma # T6199) diluted to 1:200 in PBST. After 3 10-minute washings with PBST, the cells are incubated for 30 minutes at ambient temperature in a solution of goat anti-mouse polyclonal antibodies coupled with Alexa 488 (1:1000, Molecular Probes # A-11029) and phalloidin coupled with Texas red to label the actin (1:2000, Molecular Probes # T7471), in PBST also containing Hoechst 33258 (1 μg/ml) for labelling the DNA. After 3 10-minute washings in PBST, the slides are mounted on plates in Fluorsave™ mounting medium (Calbiochem #345789) and are observed and analyzed using an Axiovert 200M inverted fluorescence microscope (Zeiss®). The images are produced with a Plan-Apochromat 63× oil objective (Zeiss®) by means of a Coolsnap HQ camera (Roper Scientifics®) and with Metamorph acquisition software (Universal Imaging™ Corporation).
# In order to evaluate the effect of the analogues of compound 6 on PHFs and HeLa cells, the immunofluorescence technique described above was used and adapted to a 96-well dish format. The cells were seeded in glass-bottomed 96-well dishes and incubated for 24 hours in the presence of different concentrations of molecules from 100 μM to 50 nM. And in the same way as described above, the cells were fixed and immunolabelled. Analysis of the phenotypes as well as counting the mitotic cells were carried out with the same microscope but using a ×40 objective (Olympus). The molecules were compared with each other with respect to the mitotic arrest induced on PHFs and HeLa cells at 25 and 0.3 μM.
# The mitotic index and/or the depolymerization of the MTs were evaluated at 25 μM.
# [3] = system: HMEC cells; experiment: Proliferation of HMEC cells (GI50); type: cell-based; conditions: Homo sapiens, 120 h, 50 μM to 1 nM for 5 days
# Protocol: The HMECs were seeded at 10% confluence and incubated with the molecules at different concentrations (from 50 μM to 1 nM) for 5 days. The GI50 (50% Growth Inhibition) defines the concentration inducing a 50% reduction in proliferation with respect to the control.
# [4] = target: T1, PP1α (PP1CA) (Oryctolagus cuniculus, UniProt P62139); experiment: Protein phosphatase test (PP1 activity, DiFMUP fluorescent substrate); type: biochemical; conditions: for IC50: PP1CA at 80 mU, fluorescent substrate (50 μM), molecules from 50 μM to 50 nM, read-out: PP1 Inhibition IC50
# T1 construct: purchased New England Biolabs P0754
# T1 sequence (P62139 whole entry): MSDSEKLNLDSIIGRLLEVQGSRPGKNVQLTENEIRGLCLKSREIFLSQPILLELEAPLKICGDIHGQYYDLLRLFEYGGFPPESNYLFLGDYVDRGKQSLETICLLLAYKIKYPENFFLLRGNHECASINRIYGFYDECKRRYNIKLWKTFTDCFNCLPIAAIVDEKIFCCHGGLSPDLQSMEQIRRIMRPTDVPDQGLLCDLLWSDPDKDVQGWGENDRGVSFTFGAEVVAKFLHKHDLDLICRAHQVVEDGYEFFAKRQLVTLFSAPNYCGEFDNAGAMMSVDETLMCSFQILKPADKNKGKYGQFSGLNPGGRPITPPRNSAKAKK
# Protocol: FIG. 13 presents the graph showing the inhibition of the PP1Cα activity by compound 6 in vitro. PP1Cα (New England Biolabs, 30 mU/well) was incubated in the presence of compound 6 at different concentrations and a fluorescent substrate, diFMUP.
# Determination of the 1050 was carried out with PP1CA at 80 mU in the presence of a fluorescent substrate
# (50 μM) and different concentrations of molecules from 50 μM to 50 nM.
# For the activity tests, PP1α (New England Biolabs # P0754) was used at a final concentration of 30 mU or 80 mU for the screening of all the analogues. 6,8-difluoro-4-methylumbelliferyl phosphate (DiFMUP, Invitrogen # D6567) was used as fluorescent substrate at a concentration of […]. All the tests were carried out in a final volume of 100 μl, at 37° C. in 96-microwell plates (Greiner #655096).
# Compound 6, combretastatin A4 (CA-4) as well as all the analogues were diluted in 50 μl of PP1 buffer (100 mM Tris-HCl, pH 7.5, 4 mM DTT, 0.2 mM EDTA, 0.5 mM MnCl2) from 50 μM to 50 nM. Corresponding quantities of DMSO were added to control wells. PP1α (30 or 80 mU in 30 μl of PP1 buffer) was added to each well. After incubating for 15 minutes at AT, the substrate was added (in 20 μl of PP1 buffer). After incubating for 20 minutes at 37° C., the fluorescence was measured in a plate fluorometer at 355-460 nm in order to assay the phosphatase activity. The test was carried out three times in duplicate for each condition.
IC50 [4] [µM],Compound,Tubulin polymerization inhibition [1],Effect on Hela at 25 μM [2],GI50 [3] [µM],Effect on Hela at 100 μM ([2]; 100 μM),"inhibition of PP1Cα activity in vitro ([4]; PP1Cα 30 mU/well, diFMUP, negative control)",Effect on Hela at 50 μM ([2]; 50 μM)
10 to 24,"COc1ccc(-c2cc3ccc(OC)cc3c(OC)n2)cc1 [Compound 64, 1,7-Dimethoxy-3-(4-methoxyphenyl)isoquinoline]",— ((−) signifies that the molecule induces little or no tubulin assembly inhibition in vitro: 0+ or − −5% of the DMSO control.),—,> 50,,,
> 50,"COc1ccc(-c2nc(N)c3cc(OC)ccc3c2[N+](=O)[O-])cc1 [Compound 71, 1-Amino-7-methoxy-3-(4-methoxyphenyl)-4-nitroisoquinoline]",+ ((+) signifies that the molecule induces tubulin assembly inhibition in vitro comprised between 6 and 25% of the DMSO control.),—,25 to 50,,,
> 50,"COc1ccc(-c2c([N+](=O)[O-])c3ccc(OC)cc3c(=O)n2CCO)cc1 [Compound 68, 2-(2-Hydroxyethyl)-7-methoxy-3-(4-methoxyphenyl)-4-nitroisoquinoline-1(2H)-one]",— ((−) signifies that the molecule induces little or no tubulin assembly inhibition in vitro: 0+ or − −5% of the DMSO control.),—,25 to 50,,,
≤ 9,"COc1ccc(-c2c([N+](=O)[O-])c3ccc(OC)cc3c(=O)n2C)cc1 [Compound 66, 7-Methoxy-3-(4-methoxyphenyl)-2-methyl-4-nitroisoquinoline-1(2H)-one]",+ ((+) signifies that the molecule induces tubulin assembly inhibition in vitro comprised between 6 and 25% of the DMSO control.),*,1 to 25,,,
10 to 24,"O=c1c2ccccc2cc(-c2ccccc2)n1Cc1ccc(O)cc1 [Compound 74, 2-(p-hydroxybenzyl)-3penylisoquinolin-1(2H)-one]",,—,25 to 50,,,*
25 to 50,"COc1ccc(-c2cc3ccc(OC)cc3c(=O)n2CCO)cc1 [Compound 67, 2-(2-Hydroxyethyl)-7-methoxy-3-(4-methoxyphenyl)isoquinoline-1(2H)-one]",— ((−) signifies that the molecule induces little or no tubulin assembly inhibition in vitro: 0+ or − −5% of the DMSO control.),—,25 to 50,,,
10 to 24,"COc1ccc(COc2nc(-c3ccc(OC)cc3)c(C(F)(F)F)c3ccc(OC)cc23)cc1 [Compound 70, 7-Methoxy-1-(4-methoxybenzyloxy)-3-(4-methoxyphenyl)-4-(trifluoromethyl)isoquinoline]",+ ((+) signifies that the molecule induces tubulin assembly inhibition in vitro comprised between 6 and 25% of the DMSO control.),—,25 to 50,,,
10 to 24,"COc1ccc2c([N+](=O)[O-])c(-c3ccc(OC(=O)OC(C)(C)C)cc3)[nH]c(=O)c2c1 [Compound 73, tert-butyl 4-(7-methoxy-4-nitro-1-oxo-1,2-dihydroisoquinolin-3-yl)phenyl carbonate]",— ((−) signifies that the molecule induces little or no tubulin assembly inhibition in vitro: 0+ or − −5% of the DMSO control.),***,1 to 25,,,

# More lines, now with the values behind:
Compound,IC50 [4] [µM],Tubulin polymerization inhibition [1],Effect on Hela at 25 μM [2],GI50 [3] [µM],Effect on Hela at 100 μM ([2]; 100 μM),"inhibition of PP1Cα activity in vitro ([4]; PP1Cα 30 mU/well, diFMUP, negative control)",Effect on Hela at 50 μM ([2]; 50 μM)
"COc1ccc(-c2[nH]c(=O)c3cc(OC)ccc3c2Cl)cc1 [Compound 14, 4-Chloro-7-methoxy-3-(4-methoxyphenyl)isoquinoline-1(2H)-one]",> 50,+++ ((+++) signifies that the molecule induces tubulin assembly inhibition in vitro of more than 50% with respect to the DMSO control.),—,25 to 50,,,
"O=c1[nH]c(-c2ccc(O)cc2)c(Cl)c2ccc(O)cc12 [Compound 56, 4-Chloro-7-hydroxy-3-(4-hydroxyphenyl)isoquinoline-1(2H)-one]",10 to 24,— ((−) signifies that the molecule induces little or no tubulin assembly inhibition in vitro: 0+ or − −5% of the DMSO control.),—,> 50,*,,
"COc1ccc(/C=C\c2cc(OC)c(OC)c(OC)c2)cc1O [combretastatin A-4, reference compound]",,,,,,does not inhibit PP1 activity,
COc1ccc(-c2[nH]c(=O)c3ccccc3c2[N+](=O)[O-])cc1 [Compound 7],> 50,+ ((+) signifies that the molecule induces tubulin assembly inhibition in vitro comprised between 6 and 25% of the DMSO control.),***,1 to 25,,,
"COc1ccc2c([N+](=O)[O-])c(-c3ccc(C#CC(C)(C)C)cc3)[nH]c(=O)c2c1 [Compound 60, 3-(4-(3,3-dimethylbut-1-ynyl)phenyl)-7-methoxy-4-nitroisoquinolin-1(2H)-one]",≤ 9,— ((−) signifies that the molecule induces little or no tubulin assembly inhibition in vitro: 0+ or − −5% of the DMSO control.),***,1 to 25,,,
"COc1ccc(-c2[nH]c(=O)c3cc(OC)ccc3c2O)cc1 [Compound 41, 4-Hydroxy-7-methoxy-3-(4-methoxyphenyl)isoquinolin-1(2H)-one]",> 50,— ((−) signifies that the molecule induces little or no tubulin assembly inhibition in vitro: 0+ or − −5% of the DMSO control.),—,1 to 25,,,
Nc1c(-c2ccccc2)[nH]c(=O)c2ccccc12 [Compound 2],> 50,— ((−) signifies that the molecule induces little or no tubulin assembly inhibition in vitro: 0+ or − −5% of the DMSO control.),—,25 to 50,,,
